BindingDB's records for doi:10.1111/j.1747-0285.2005.00317.x (Abbott Laboratories, 2006)

target: T1, UDP-N-acetylmuramoyl-tripeptide--D-alanyl-D-alanine ligase (Streptococcus pneumoniae (strain ATCC BAA-255 / R6), UniProt Q8DNV6); assay: Inhibition Assay
T1 sequence (Q8DNV6 whole entry): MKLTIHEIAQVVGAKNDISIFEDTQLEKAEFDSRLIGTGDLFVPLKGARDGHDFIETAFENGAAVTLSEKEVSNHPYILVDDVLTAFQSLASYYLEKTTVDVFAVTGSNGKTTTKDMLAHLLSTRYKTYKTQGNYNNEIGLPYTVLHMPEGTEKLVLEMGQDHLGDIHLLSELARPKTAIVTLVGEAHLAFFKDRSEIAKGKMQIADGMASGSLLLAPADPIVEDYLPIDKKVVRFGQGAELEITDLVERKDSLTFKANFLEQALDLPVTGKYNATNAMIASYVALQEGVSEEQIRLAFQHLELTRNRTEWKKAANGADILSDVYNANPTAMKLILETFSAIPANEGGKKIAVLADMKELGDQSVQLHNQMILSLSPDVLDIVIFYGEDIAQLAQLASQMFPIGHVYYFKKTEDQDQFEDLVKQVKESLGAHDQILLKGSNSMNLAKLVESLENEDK
Description: Inhibition of D-Ala-D-Ala adding enzyme (MurF) from Streptococcus pneumoniase.

Row | Compound | IC50 [µM]
1 | N#Cc1c(NC(=O)c2cc(S(N)(=O)=O)ccc2Cl)sc2c1CCC2 [MurF inhibitor, 6] | 78
2 | CCN(CC)S(=O)(=O)c1cc(C(=O)Nc2sc3c(c2C#N)CCC(c2ccc(O)cc2)C3)c(Cl)cc1Cl (stereo not drawn) [MurF inhibitor, 15] | 0.07
3 | N#Cc1c(NC(=O)c2cc(S(=O)(=O)NCCCCO)ccc2Cl)sc2c1CCC2 [MurF inhibitor, 4] | 22
4 | N#Cc1c(NC(=O)c2cc(S(=O)(=O)N3CCCCC3)ccc2Cl)sc2c1CCCC2 [MurF inhibitor, 5] | 2.5
5 | CCN(CC)S(=O)(=O)c1ccc(Cl)c(C(=O)Nc2sccc2C#N)c1 [MurF inhibitor, 12] | 151
6 | N#Cc1c(NC(=O)c2cc(S(=O)(=O)C3CCOCC3)ccc2Cl)sc2c1CCC2 [MurF inhibitor, 3] | 9
7 | CCN(CC)S(=O)(=O)c1ccc(Cl)c(C(=O)Nc2sc(Br)cc2C#N)c1 [MurF inhibitor, 13] | 12.6
8 | N#Cc1cc(CCc2ccccn2)sc1NC(=O)c1cc(S(=O)(=O)N2CCOCC2)ccc1Cl [MurF inhibitor, 14] | 6
